The values that follow come from US11066482B2, “Specific plasmin inactivation by anticatalytic antibody” (priority 2017, dated 2021).

Data set [1] has as its target plasmin-mediated cleavage of factor V (Homo sapiens, UniProt P00747). Nature of the data set: Factor V cleavage by plasmin, SDS-PAGE. In kind it is biochemical. The conditions noted are these: EACA 1 mM or Pi 5 ug, 1 hr RT. As for the experimental part: FIGS. 4A-4D show comparative inhibition of factor V cleavage and human clot fibrinolysis (dissolution) by Pi, EACA and a2AP. […] The relative migration of molecular weight standards is shown (kDa). […] Human plasma was clotted with CaCl2 (10 mM) and thrombin (1 U/ml) in the presence of trace amounts of 1251 fibrinogen for 1 h at 37 deg. C. After washing in 1 ml of TBS pH 7.4, tPA (5 nM) was added in the presence of various amounts of Pi (62.5 to 1000 nM), EACA (0.125 mM to 2 mM) or no inhibitor. After 2.5 h the amount of fibrinolysis was determined by measuring the amount of 125I-fibrin dissolved in the supernatant. Means of duplicate observations are shown. […] Clots were formed as above in the presence of human plasminogen (2 uM) and a2AP (1 uM) or Pi (1 uM) and various amounts of tPA (0-10 nM). Clot dissolution was monitored in duplicate over 2 h in microtiter plate wells at A405 nm. […] Human plasma clots were mixed with various concentrations of Pi IgG, Pi Fab and chimeric Pi Fab (25 nM-400 nM) and plasmin was activated by urokinase. The amount of clot lysis was determined as described in Methods.
Factor V cleavage. Human factor V (2 ug, IHFV, Innovative Research) was mixed with plasmin (0.05 ug) for 1 hr at RT in the presence of EACA (1 mM), Pi (5 ug) or a control monoclonal antibody (digoxin, 5 ug). […] Protein bands were detected by staining with Coomassie blue dye.

Data set [2] has as its system plasmin-mediated fibrinolysis of human fibrin clots. Put plainly: Fibrinolysis of 125I-fibrin human plasma clots with tPA, EACA vs Pi. The conditions noted are these: tPA 5 nM, 2.5 h. In kind it is biochemical.
The next data set relates to fibrinolytic bleeding. Put plainly: Fibrinolytic bleeding assay in vivo (humanized tail bleeding model). Also noted: species or system mice. The conditions noted are these: EACA 510 micromole/kg intravenously. The procedure: Anesthetized mice were treated in a randomized, blinded fashion with saline (Control), Pi (100 nmole/kg) or EACA (510 micromole/kg) intravenously. Human plasminogen (100 nmole/kg) and plasminogen activator (80,000 IU/kg) were given over 60 min. Tail bleeding was initiated 40 min. after the infusion. Tails were pre-warmed for 5 mins in 3 mL of 37° C. saline and bleeding was monitored as described.36,37 N=5-6, Means±SE are shown. *p<0.05, **p<0.01; ns, not significant. Kruskal Wallis one way ANOVA, Dunn's corrections.
Fibrinolytic bleeding assays in vivo. Anesthetized mice were treated in a randomized, blinded fashion with saline (Control), Pi (100 nmole/kg) or EACA (510 micromole/kg). Human plasminogen (100 nmole/kg) and plasminogen activator (80,000 IU/kg) were given over 60 min. Tail bleeding started 40 min. after the infusion. Tails were pre-warmed for 5 mins in 3 mL of 37° C. saline as described.(27, 28).
Suppression of fibrinolytic bleeding in vivo. The potential utility of the Pi for suppression of fibrinolytic bleeding was examined in vivo in randomized, blinded studies of surgical arterial and venous hemorrhage.

The conditions of data set [3]: in vivo; cited from earlier work.
The target of the next data set is Plasmin (Homo sapiens, UniProt P00747). Nature of the data set: Effect of mouse or chimeric Fab on plasmin activity, S2251. It is filed as biochemical. The conditions noted are these: plasmin 25 nM, Fab 0-200 nM, S2251 0.5 mM. As for the experimental part: FIGS. 2A-2D show comparative inhibition of plasmin activity by Pi EACA and a2AP. […] The percent residual activity of plasmin as a function of the log concentration of inhibitor is shown. […] Human plasmin (100 nM, Hematologic Technologies, Inc.) was mixed with or without Pi (50 nM) in the presence of the substrate S2251 (0.1 to 4 mM). The initial rate of substrate cleavage (6 min.) was monitored at A405. Data were plotted and analyzed using Michaelis-Menten kinetics by the Graphpad Prism Program. Means (duplicate observations) are shown and are representative of 4 separate experiments. […] The means of duplicate observations are shown. […] Plasmin (25 nM) was mixed with various concentrations (0-200 nM) of mouse Fab or chimeric Fab (cFab) and S2251 (0.5 mM) in TBS buffer pH 7.4. Plasmin activity was measured by the release of paranitroanilide product at A405 over time.
Sequence of Plasmin (P00747 97-580 limits assumed): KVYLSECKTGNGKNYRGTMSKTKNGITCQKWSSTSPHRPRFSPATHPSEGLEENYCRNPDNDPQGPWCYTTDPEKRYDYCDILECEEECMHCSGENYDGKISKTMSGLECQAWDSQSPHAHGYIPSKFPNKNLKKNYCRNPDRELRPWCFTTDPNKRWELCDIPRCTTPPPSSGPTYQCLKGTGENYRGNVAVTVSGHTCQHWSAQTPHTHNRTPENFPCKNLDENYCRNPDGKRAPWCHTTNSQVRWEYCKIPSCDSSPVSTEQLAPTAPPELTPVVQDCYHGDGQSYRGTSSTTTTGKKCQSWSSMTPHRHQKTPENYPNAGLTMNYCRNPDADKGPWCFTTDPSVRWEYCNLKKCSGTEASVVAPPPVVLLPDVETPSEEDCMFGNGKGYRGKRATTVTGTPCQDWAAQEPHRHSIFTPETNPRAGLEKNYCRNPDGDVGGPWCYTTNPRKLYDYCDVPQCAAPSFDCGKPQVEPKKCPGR
Sequence of Plasmin (P00747 581-810 limits assumed): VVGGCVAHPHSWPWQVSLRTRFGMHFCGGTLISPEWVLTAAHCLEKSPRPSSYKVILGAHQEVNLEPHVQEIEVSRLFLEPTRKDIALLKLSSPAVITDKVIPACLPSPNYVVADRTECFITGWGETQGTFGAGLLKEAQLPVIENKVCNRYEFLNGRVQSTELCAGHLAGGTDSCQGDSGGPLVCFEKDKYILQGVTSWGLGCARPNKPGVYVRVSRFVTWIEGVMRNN
The effects of mouse or chimeric Fab on plasmin activity were examined. Plasmin (25 nM) was mixed with various concentrations (0-200 nM) of mouse Fab or chimeric Fab (cFab) and S2251 (0.5 mM) in TBS buffer pH 7.4. Plasmin activity was measured by the release of paranitroanilide product at A405 over time.

For the next data set, the system named is human plasma clots. Put plainly: Clot lysis assay of Pi IgG, Fab and chimeric Fab, urokinase. In kind it is biochemical. The conditions noted are these: 25 nM-400 nM, 30 min. The procedure:
FIGS. 4A-4D show comparative inhibition of factor V cleavage and human clot fibrinolysis (dissolution) by Pi, EACA and a2AP. […] The relative migration of molecular weight standards is shown (kDa). […] Human plasma was clotted with CaCl2 (10 mM) and thrombin (1 U/ml) in the presence of trace amounts of 1251 fibrinogen for 1 h at 37 deg. C. After washing in 1 ml of TBS pH 7.4, tPA (5 nM) was added in the presence of various amounts of Pi (62.5 to 1000 nM), EACA (0.125 mM to 2 mM) or no inhibitor. After 2.5 h the amount of fibrinolysis was determined by measuring the amount of 125I-fibrin dissolved in the supernatant. Means of duplicate observations are shown. […] Clots were formed as above in the presence of human plasminogen (2 uM) and a2AP (1 uM) or Pi (1 uM) and various amounts of tPA (0-10 nM). Clot dissolution was monitored in duplicate over 2 h in microtiter plate wells at A405 nm. […] The amount of clot lysis was determined as described in Methods.
The effects of Pi IgG, Fab or chimeric Fab were also compared in a clot lysis assay in microtiter plates. […] C. was monitored at 405 nm. The percent clot dissolution at 30 min. was determined as the percent change in peak turbidity from baseline=100%×(peak absorbance−30 min. absorbance)/(peak absorbance−baseline absorbance).

Sequence of plasmin-mediated cleavage of factor V (P00747 97-580 limits assumed): as the sequence (P00747 97-580 limits assumed) above
Sequence of plasmin-mediated cleavage of factor V (P00747 581-810 limits assumed): as the sequence (P00747 581-810 limits assumed) above

On to `NCCCCCC(=O)O` [EACA, epsilon amino caproic acid, reference compound], for which, in data set [1], the “effect on Factor V cleavage by plasmin” value is “slightly diminished Factor V cleavage”. Moreover, in data set [2], the “fold less potent than the Pi in suppressing fibrinolysis” value was “approximately 5,000 fold”. Besides, the “effect on fibrinolysis of human fibrin clots” value in data set [2] (Pi 62.5 to 1000 nM, EACA 0.125 mM to 2 mM) is recorded as “diminished fibrinolysis”. In the data set with fibrinolytic bleeding, the “effect on bleeding time vs saline” value was “did not reduce bleeding time or blood loss” and the “effect on blood loss vs saline” value is on record as “did not reduce bleeding time or blood loss”.

Turning to `NC[C@H]1CC[C@H](C(=O)O)CC1` [Tranexamic acid, tranexamic acid], in data set [3], the “excreted via the urine unchanged” value is given as 95%.

B1: mouse Fab: Fab fragment of the Pi lacking the Fc domain (antibody, V domains shown)
VH: EVKLLESGGGLVQPGGSLKLSCAASGFDFSRYWMSWVRQAPGKGLEWIGEINPDSSTINYTPSLKDKFIISRDNAKNSLYLQMSKVRSEDTALYYCASYCGYSYDALDCWGQGTSVTVSS
VL: DIQMTQSPSSLSASLGGKVSITCKASQDINKYISWYQHKPGKGPRLLIHYTSTLQPGIPSRFSGSGSGRDYSFSISNLEPEDIATYYCLQYDNLYTFGGGTKLEIK
For B1, the “inhibition of plasmin activity with tripeptide substrate” value in the data set with Plasmin is “potently inhibited plasmin activity”. For the same molecule, the “inhibition of clot lysis by Pi molecular forms” value in the data set with human plasma clots is “effectively inhibited clot lysis”.
